The test system of series [1] is BP1 cells. The experiment in a line: Tumor invasion in Matrigel, BP1. In kind it is cell-based, human. Particulars: 5 uM, 5 days. As to the method:
(§1) BP1 cells were cultured in the presence of vehicle (left) or 5 uM CB7993113 in Matrigel for 5 days. CB7993113 is not toxic at the highest doses tested, 10 uM.
BP1 cells were cultured in Matrigel in the presence of vehicle, 5 μM DIM (16A), vehicle or 5 uM CB7950998 (16B) for 5 days.

For series [2], the system named is bone marrow hematopoietic cells. Put plainly: DMBA-induced bone marrow toxicity in mice. The settings on record: 48 hours; for DMBA-induced decrease in total number of bone marrow cells: 50 mg/kg i.p., 50 mg/kg DMBA; for DMBA-induced decrease in pro B cells, pre-B cells and neutrophils: co-administration with 50 mg/kg DMBA. In kind it is in vivo, C57BL/6 mice. How it is done:
To test the ability of one of the lead compounds described herein, CB7993113, to be absorbed and to function effectively in vivo, C57BL/6 mice were treated with an acutely toxic dose (50 mg/kg) of DMBA, a potent AhR agonist, in the presence or absence of CB7993113 or another AhR inhibitor, CH223191. […] This decrease in the total number of bone marrow cells was prevented by the i.p. injection of 50 mg/kg CH223191 or CB7993113.
Mice then were injected with 50 mg/kg DMBA. Mice were sacrificed 48 hours later. Bone marrow hematopoietic cells were expunged from the bone and viable cells counted. Data are presented as the average number of viable white blood cells+SE. **p<0.01, ***P<0.001, student's t-test. […] C57BL/6 mice (6/group) were treated as in FIG. 8A. The percentage and number of viable bone marrow pro B cells, pre B cells, and neutrophils were determined 48 hours later by flow cytometry. Data are presented as the average number of viable cells of each subtype+SE. (*p<0.05, **P<0.01, student's t-test).

Series [3] deals with BP1 cells. The experiment in a line: Toxicity of CB7993113 at highest doses tested. In kind it is cell-based, human. Particulars: 10 uM. How it is done:
as §1

For series [4], the target named is T1, AhR (Mus musculus, UniProt P30561). The experiment in a line: AhR nuclear translocation, western immunoblot of Hepa-1 nuclear and cytoplasmic extracts. Particulars: Hepa-1 cells. In kind it is cell-based. Also on record: endogenous in cells. How it is done:
To determine whether the inhibitory action of CB7993113 involves binding to the AhR and blocking its translocation to the nucleus, Hepa-1 cells were treated with 1-10 uM CB7993113. One hour later they were challenged with a strong AhR agonist and prototypic PAH, DMBA (1 uM). After a 30 minute incubation period, cells were harvested and extracts from cell nuclei and cytoplasm were obtained. These extracts then were probed for levels of AhR and, as a loading control, β-actin, by western immunoblotting.
Hepa-1 cells were treated with vehicle or 1-10 μM CH223191. One hour later cells were treated with 0.1 μM DMBA (where indicated) and incubated for 30 minutes. Cells were harvested and proteins from the cytoplasm and nuclei were extracted. Extracted proteins were subjected to AhR- or, as loading control, β-actin-specific western immunoblots. Data are representative of 3 independent experiments.

For series [5], the target named is T2, AhR (Homo sapiens, UniProt P35869).
T2 sequence (P35869 11-848): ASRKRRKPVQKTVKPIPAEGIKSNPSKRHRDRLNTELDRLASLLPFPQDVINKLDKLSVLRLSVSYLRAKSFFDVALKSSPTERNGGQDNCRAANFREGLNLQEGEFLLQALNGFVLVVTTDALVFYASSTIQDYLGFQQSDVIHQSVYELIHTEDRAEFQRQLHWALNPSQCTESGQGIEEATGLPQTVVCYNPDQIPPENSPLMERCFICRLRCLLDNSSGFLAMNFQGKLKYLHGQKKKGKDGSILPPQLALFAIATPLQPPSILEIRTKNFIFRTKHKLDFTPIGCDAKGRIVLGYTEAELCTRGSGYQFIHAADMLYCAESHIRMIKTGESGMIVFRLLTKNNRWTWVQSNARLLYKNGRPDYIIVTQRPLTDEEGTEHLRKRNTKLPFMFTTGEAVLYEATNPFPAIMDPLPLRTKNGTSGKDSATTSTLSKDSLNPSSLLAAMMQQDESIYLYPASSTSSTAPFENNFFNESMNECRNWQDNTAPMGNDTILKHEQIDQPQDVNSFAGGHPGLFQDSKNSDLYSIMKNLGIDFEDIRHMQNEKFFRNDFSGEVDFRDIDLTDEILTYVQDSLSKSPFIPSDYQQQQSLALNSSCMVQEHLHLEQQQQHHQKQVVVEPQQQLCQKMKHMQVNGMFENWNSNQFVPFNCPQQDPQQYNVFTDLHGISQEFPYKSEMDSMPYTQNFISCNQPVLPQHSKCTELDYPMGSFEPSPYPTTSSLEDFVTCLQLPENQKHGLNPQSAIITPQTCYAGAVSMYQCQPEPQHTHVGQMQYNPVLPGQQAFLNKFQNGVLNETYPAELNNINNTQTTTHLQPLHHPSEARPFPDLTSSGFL
The experiment in a line: Radiolabeled TCDD displacement from in vitro translated AhR, sucrose gradient. In kind it is binding. Further details: made in house. The settings on record: fractions 13-16 of sucrose gradient. An excerpt:
The compounds CMLD-2166 and CB7993113 were mixed with in vitro translated human AhR and radiolabeled TCDD (dioxin), a high affinity AhR ligand. Complexes then were separated on a sucrose gradient and fractions assayed for radioactivity. A decrease in the signal (displacement of radiolabeled TCDD) can be seen in fractions 13-16 indicating binding of the test compound to the AhR and displacement of TCDD.

For series [6], the target named is T3, PPARγ (Homo sapiens, UniProt P37231).
T3 construct: expressed in transfected cells; host or cells: Cos 7 cells
T3 sequence (P37231 1-505): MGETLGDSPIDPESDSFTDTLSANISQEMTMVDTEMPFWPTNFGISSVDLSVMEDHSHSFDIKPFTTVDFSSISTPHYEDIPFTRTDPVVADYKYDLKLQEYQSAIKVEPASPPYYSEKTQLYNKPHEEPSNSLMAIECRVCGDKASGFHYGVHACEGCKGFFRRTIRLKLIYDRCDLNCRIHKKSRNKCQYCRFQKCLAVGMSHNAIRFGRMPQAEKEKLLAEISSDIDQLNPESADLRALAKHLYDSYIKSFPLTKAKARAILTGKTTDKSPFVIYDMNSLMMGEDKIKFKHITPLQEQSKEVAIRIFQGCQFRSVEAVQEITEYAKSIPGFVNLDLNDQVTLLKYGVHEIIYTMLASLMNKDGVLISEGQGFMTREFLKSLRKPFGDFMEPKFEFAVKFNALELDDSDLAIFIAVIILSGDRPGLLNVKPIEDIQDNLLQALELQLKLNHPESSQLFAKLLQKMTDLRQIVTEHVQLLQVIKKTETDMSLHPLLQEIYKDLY
T3 sequence (P19793 1-462 partner): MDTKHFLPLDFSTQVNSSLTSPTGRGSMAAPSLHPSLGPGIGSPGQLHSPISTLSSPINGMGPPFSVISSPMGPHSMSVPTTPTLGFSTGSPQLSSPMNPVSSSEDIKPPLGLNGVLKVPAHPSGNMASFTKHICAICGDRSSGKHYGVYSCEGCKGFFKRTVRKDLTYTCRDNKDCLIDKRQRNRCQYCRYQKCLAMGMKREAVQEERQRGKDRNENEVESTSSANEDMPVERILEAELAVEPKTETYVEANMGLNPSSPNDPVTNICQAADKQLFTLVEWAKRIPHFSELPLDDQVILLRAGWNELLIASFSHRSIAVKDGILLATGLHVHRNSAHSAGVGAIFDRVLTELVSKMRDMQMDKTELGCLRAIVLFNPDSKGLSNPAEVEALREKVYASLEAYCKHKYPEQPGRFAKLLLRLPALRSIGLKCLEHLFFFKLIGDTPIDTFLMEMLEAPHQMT
Put plainly: PPARγ-driven luciferase reporter in Cos 7 cells. In kind it is cell-based. Particulars: rosiglitazone 1 μM, 18-24 hrs. How it is done: Cos 7 cells were transfected with the peroxisome proliferator activator receptor-γ (PPARγ), its dimerization partner, RXR, a PPARγ-driven luciferase reporter construct, and a control CMV-driven GFP reporter for 24 hours. Cells then were treated with a vehicle, 10 μM AhR inhibitor CH223191, 50 μM AhR inhibitor CMLD-2166, or 10 μM AhR inhibitor CB7993113. (These represent high AhR inhibitor doses). Rosiglitazone (1 μM), a strong PPARγ agonist, was added 1 hour later and cells assayed 18-24 hrs thereafter for PPARγ-driven reporter activity (luciferase intensity), normalized to the GFP signal. Data were pooled from 4 experiments. Unlike their ability to block AhR-driven reporter activity, the AhR inhibitors had no effect on the PPARγ-driven reporter activity.
Background: Reporter assays use an easily measured gene product as a stand-in for the process of interest.

Series [7] has as its system Hs578T cells. Put plainly: Tumor invasion in Boyden Chambers. In kind it is cell-based, human. Particulars: 10^−5M, 2 days. How it is done:
(§2) Hs578T cells were cultured in Boyden Chambers (FIG. 7A) or in Matrigel (FIG. 7B) in the presence of DMSO, 10^−5M CMLD-2166, CMLD-2186 (a 2166 enantiomer) or CH223191 and assayed for invasion 2 (Boyden Chambers) or 7 (Matrigel) days later.

Series [8] deals with BP1 and MCF-10F cells. The experiment in a line: 3H-thymidine incorporation cell growth. In kind it is cell-based, human. The settings on record: 18 hrs. A general note: Incorporation of labelled thymidine or its analogues reports DNA synthesis.
The target of series [9] is T2, AhR. The experiment in a line: AhR-responsive pGudLuc reporter, constitutive AhR activity. The settings on record: BP1 and MCF-10F cells, 24 hrs. In kind it is cell-based. Further details: malignant BP1 and immortalized MCF-10F cells that were transiently transfected with AhR-responsive pGudLuc; endogenous in cells; host or cells: BP1 and MCF-10F cells.
Series [10] addresses T1, AhR. The experiment in a line: High throughput AhR-driven GFP reporter bioassay in H1G1 cells. In kind it is cell-based. Further details: H1G1 cells expressing an AhR-driven GFP reporter construct; endogenous in cells; host or cells: H1G1 cells. The settings on record: titered in presence of 1 μM BNF; read-out: AhR Antagonists IC50. How it is done:
Using a high throughput reporter-based AhR bioassay and cell viability assay, over 4000 CMLD compounds, FDA drugs, and NCI-generated extracts were screened, and 8 non-toxic AhR inhibitors (2 from the CMLD) and 19 AhR agonists (14 from the CMLD) were identified (as shown in, e.g., FIGS. 4A-4B). IC50 values for inhibitors and EC50 values for agonists were determined (Table 1). One of these discovered inhibitors (CMLD-2166), its enantiomer (CMLD-2186), and a previously described lipid soluble AhR inhibitor (CH223191) blocked tumor growth and invasion (FIGS. 5A-5B and 7A-7B).
FIGS. 4A-4B show high-throughput screening (HTS) for AhR agonists and antagonists. […] A dark circle identifies an AhR inhibitor while the light circle indicates an agonist. […] Over 4,000 compounds were screened in this semi-automated assay.

Series [11] has as its system Hs578T cells. Put plainly: Tumor invasion in Matrigel, Hs578T. In kind it is cell-based, human. Particulars: 10^−5M, 7 days. As to the method: as §2

“Also recorded” adds a separate entry of the source.

The IC50 is the concentration that gives 50% inhibition.

T1 sequence (P30561 10-805 limits assumed): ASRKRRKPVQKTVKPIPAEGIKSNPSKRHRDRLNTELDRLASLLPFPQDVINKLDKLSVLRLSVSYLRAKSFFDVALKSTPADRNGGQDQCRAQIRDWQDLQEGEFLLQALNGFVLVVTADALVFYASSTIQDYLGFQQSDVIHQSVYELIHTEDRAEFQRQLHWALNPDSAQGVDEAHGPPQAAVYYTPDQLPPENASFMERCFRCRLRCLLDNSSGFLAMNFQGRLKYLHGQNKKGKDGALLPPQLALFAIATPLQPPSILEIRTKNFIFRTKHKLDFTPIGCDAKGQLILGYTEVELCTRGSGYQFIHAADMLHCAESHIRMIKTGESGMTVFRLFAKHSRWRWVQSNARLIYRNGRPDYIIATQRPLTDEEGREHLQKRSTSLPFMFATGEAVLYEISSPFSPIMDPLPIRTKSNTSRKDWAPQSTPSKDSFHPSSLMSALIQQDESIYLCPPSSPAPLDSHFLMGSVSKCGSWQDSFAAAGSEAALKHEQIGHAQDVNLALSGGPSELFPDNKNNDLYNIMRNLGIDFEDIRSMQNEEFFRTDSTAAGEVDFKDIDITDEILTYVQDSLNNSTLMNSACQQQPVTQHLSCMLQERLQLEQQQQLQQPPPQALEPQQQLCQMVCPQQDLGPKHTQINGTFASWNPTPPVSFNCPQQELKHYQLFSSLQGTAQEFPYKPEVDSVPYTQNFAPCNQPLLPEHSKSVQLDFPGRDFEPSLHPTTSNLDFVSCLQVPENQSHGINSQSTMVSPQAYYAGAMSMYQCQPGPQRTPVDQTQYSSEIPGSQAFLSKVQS
T1 sequence (P11499 whole entry partner): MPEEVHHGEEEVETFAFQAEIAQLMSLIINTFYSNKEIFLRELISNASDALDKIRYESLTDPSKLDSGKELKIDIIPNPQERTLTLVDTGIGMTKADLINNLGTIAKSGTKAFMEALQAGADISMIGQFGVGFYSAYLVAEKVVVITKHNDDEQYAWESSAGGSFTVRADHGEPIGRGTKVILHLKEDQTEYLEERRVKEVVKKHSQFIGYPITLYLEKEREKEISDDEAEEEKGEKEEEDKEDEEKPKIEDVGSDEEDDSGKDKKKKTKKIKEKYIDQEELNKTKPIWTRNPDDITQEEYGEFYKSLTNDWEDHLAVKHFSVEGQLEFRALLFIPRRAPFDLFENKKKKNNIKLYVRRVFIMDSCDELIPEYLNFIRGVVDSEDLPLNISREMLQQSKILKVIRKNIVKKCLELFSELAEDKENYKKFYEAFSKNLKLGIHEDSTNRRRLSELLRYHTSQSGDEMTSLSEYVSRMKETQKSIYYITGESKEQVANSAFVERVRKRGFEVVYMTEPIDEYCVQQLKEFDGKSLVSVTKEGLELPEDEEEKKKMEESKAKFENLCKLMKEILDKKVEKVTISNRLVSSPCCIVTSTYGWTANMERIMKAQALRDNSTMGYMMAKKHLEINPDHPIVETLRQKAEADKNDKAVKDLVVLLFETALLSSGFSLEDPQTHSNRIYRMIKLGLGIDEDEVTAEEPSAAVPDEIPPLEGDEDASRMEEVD
T1 sequence (O08915 whole entry partner): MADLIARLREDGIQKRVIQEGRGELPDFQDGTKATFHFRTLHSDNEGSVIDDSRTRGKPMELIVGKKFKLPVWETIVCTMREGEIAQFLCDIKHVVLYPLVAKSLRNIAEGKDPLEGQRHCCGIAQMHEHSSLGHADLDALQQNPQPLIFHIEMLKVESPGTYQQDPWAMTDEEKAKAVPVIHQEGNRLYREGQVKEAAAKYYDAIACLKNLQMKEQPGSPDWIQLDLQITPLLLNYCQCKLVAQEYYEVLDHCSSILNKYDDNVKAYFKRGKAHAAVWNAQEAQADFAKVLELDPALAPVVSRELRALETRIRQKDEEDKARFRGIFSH

Take `CCOC(=O)Oc1c(-c2ccc(Cl)cc2)oc2ccccc2c1=O` [CB7950998]: the “BP1 tumor invasion in Matrigel” value in series [1] is “reduce”.
As for `NC(=O)COc1c(-c2ccc(Br)o2)oc2ccccc2c1=O` [CB7993113], in series [2], the “DMBA-induced decrease in total number of bone marrow cells” value is reported as “prevented”; the “DMBA-induced decrease in pro B cells, pre-B cells and neutrophils” value was “completely blocked”. In series [3], the toxicity entry is “not toxic”. Also, the “DMBA-induced AhR translocation to the nucleus” value in [4] (1-10 uM, 1 h before DMBA, 30 min) is “completely blocked”. For the same compound, the “translocation of the AhR to the nucleus, inhibitor alone (agonist activity)” value in series [4] (no DMBA) is listed as “no effect”. Besides, the “BP1 tumor invasion in Matrigel” value in series [1] is recorded as “blocks”. For the same compound, in series [5], the “binding to AhR (displacement of radiolabeled TCDD)” value is recorded as “bind human AhR”. For the same compound, the PPARγ-driven reporter activity result in series [6] (10 μM) is “no effect”.
Regarding `Cc1ccccc1N=Nc1ccc(NC(=O)c2ccnn2C)c(C)c1` [CH223191, reference compound], in [2], the “DMBA-induced decrease in total number of bone marrow cells” value is reported as “prevented”; the “DMBA-induced decrease in pro B cells, pre-B cells and neutrophils” value is reported as “completely blocked”. The “tumor invasion, Boyden Chambers” value in series [7] is listed as “inhibit tumor invasion”. For the same compound, the “cell growth (3H-thymidine incorporation)” value in series [8] was “blocked; also recorded: inhibit”. In addition, in series [9], the “constitutive AhR activity (pGudLuc activity)” value is listed as “inhibit”. Also, the PPARγ-driven reporter activity result in series [6] (10 μM) is recorded as “no effect”. For the same compound, in series [10], the IC50 worked out at 330 nM. Moreover, in series [11], the “tumor invasion, Matrigel” value is given as “inhibit tumor invasion”.
For the compound `COc1ccc2c(c1)C(=O)[C@H](OC(=O)NS(=O)(=O)c1ccc(C)cc1)[C@@H](c1ccc(OC)c(Br)c1)O2` [CMLD-2166], the “tumor invasion, Boyden Chambers” value in series [7] is “inhibit tumor invasion”. Moreover, the figures for the “cell growth (3H-thymidine incorporation)” value in [8] and in series [8] (listed as CMLD 2166) were “blocked” and “inhibit”, respectively. The “binding to AhR (displacement of radiolabeled TCDD)” value in series [5] is listed as “bind human AhR”. In series [9], the “constitutive AhR activity (pGudLuc activity)” value was “inhibit”. Besides, the PPARγ-driven reporter activity entry in [6] (50 μM) was “no effect”. Moreover, the IC50 in [10] came to 200 nM. For the same compound, the “tumor invasion, Matrigel” value in series [11] is recorded as “inhibit tumor invasion”.
In the case of `c1ccc2c(Cc3c[nH]c4ccccc34)c[nH]c2c1` [DIM, 3,3′-diindolylmethane, reference compound], the “BP1 tumor invasion in Matrigel” value in series [1] is given as “reduce”.

These data come from patent US10258600B2, “Aryl hydrocarbon receptor (AhR) modifiers as novel cancer therapeutics” (Trustees of Boston University, priority 2010, dated 2019).
